Reference: patent US20040247525A1, “Brain progenitor cell-based assay, and related methods and compositions” (priority 2003, published 2004)
Entries after “also recorded” stand apart in the source; their conditions may differ. Read-outs that look alike come from different tables or passages of the source. Each block holds one molecule with its values, some of them ahead of it.

Legend:
129/SvEv mice = experiment: Novelty-suppressed feeding test (NSF); format: in vivo, mouse
Method: Haloperidol, an antipsychotic that antagonizes D2 dopamine receptors, was used as a negative control because it is devoid of antidepressant activity in humans. NSF performance was assessed after either 5 or 28 days of oral drug administration.

[1] = tested on: 5-HT1A receptor knockout (KO) mice; experiment: Novelty-suppressed feeding test (NSF) in 5-HT1A knockout mice; format: in vivo, mouse
Method: The Novelty-suppressed feeding test was carried out during a 5-min period as previously described (Santarelli et al., 2001). Briefly, the testing apparatus consisted of a plastic box, 50×50×20 cm. The floor was covered with approximately 2 cm of wooden bedding. Twenty-four hours prior to behavioral testing, all food was removed from the home cage. At the time of testing, a single pellet of food (regular chow) was placed on a white paper platform positioned in the center of the box. An animal was placed in a corner of the maze and a stopwatch was immediately started. The measure of interest (chewing) was scored when the mouse was sitting on its haunches and biting with the use of forepaws. Immediately after this test, mice were transferred to their home cage and the amount of food consumed in 5 min was measured (home cage food consumption). In knockout experiments, mice were genotyped after behavioral testing to remove the possibility of investigator bias. Mice were always tested during the light period.
Among the 14 known 5-HT receptor subtypes, the 5-HT1A receptor has been most consistently implicated in the modulation of mood and anxiety-related behaviors (Gross et al., 2000; Sargent et al., 2000). To determine whether this receptor is required to mediate the effects of serotonin- and noradrenaline-enhancing ADs, we compared the effects of these drugs in wild type (WT) mice and in mice lacking the 5-HT1A receptor (5-HT1A receptor knockout (KO) mice). WT and KO mice were treated with fluoxetine, imipramine, desipramine, or vehicle for a period of 28 days before being tested in the NSF paradigm.

[2] = tested on: BrdU-positive cells in the dentate gyrus; experiment: BrdU labeling of cell proliferation and neurogenesis in the dentate gyrus; format: in vivo, mouse; settings: for BrdU-labeled cells in the SGZ (cell proliferation): 8-OH-DPAT chronic (28 days, 1 mg/kg/day mini pumps), WT (+/+) mice, vs sham, 1 mg/kg/day; for BrdU-positive cells surviving 28 days after BrdU injection: wild type mice, chronic treatment, sacrificed 28 days after BrdU
[3] = tested on: BrdU-positive cells in the dentate gyrus of 5-HT1A receptor KO mice; experiment: BrdU labeling of cell proliferation in the dentate gyrus of 5-HT1A knockout mice; settings: for BrdU-labeled cells in the SGZ (cell proliferation): 8-OH-DPAT chronic (28 days, 1 mg/kg/day mini pumps), vs sham, 1 mg/kg/day; for BrdU-positive cells surviving 28 days after BrdU injection: 5-HT1A KO mice, chronic treatment, sacrificed 28 days after BrdU
Method: Knockout and wild-type 129/SvEv age-matched adult male mice (12-20 weeks) derived from heterozygote crossings (Phillips et al., 1999) were used in all experiments that included 5-HT1A knockout mice. […] Mice were housed 4-5 per cage in a 12-h (06:00-18:00) light-dark colony room at 22° C. with freely available food and water.
To assess the effect of antidepressant or X-irradiation treatments on the number of BrdU-positive cells, mice were administered BrdU (4×75 mg/kg i.p., dissolved in saline, every 2 hr; Roche Diagnostic, Indianapolis, Ind.) and sacrificed 24 hr after the last BrdU injection (FIG. 2A, 3B, 5C-D). To determine cell survival and phenotype after the various antidepressant treatments, fluoxetine, imipramine and vehicle-treated mice were allowed to survive for 28 days after the last BrdU injection (FIG. 2C-D, 3C). After deep anesthesia with a mixture of ketamine/xylazine (100 mg/kg and 7 mg/kg respectively),, mice were transcardially perfused (cold saline for 2 min, followed by 4% cold paraformaldehyde/0.1 M phosphate buffer for 5 min) and brains were collected for immunohistochemistry. All brains were post-fixed overnight in 4% paraformaldehyde at 4° C., then cryoprotected in 30% sucrose and stored at 4° C. Serial sections of the brains were cut (35 μm sections) through the entire hippocampus (plates 41-61; Franklin and Paxinos, 1997) on a cryostat and stored in PBS with 0.1% NaN3. For DAB staining, sections were slide-mounted and boiled in citric acid, pH 6.0, for 5 min, rinsed with PBS, and treated with 0.01% trypsin in Tris/CaC12 for 10 min. Brain sections were incubated for 30 min with 2N HCl and blocked with 5% NGS (Jackson ImmunoResearch, West Grove, Pa.). Sections were then incubated over night at room temperature with anti-mouse BrdU (1:100; Becton-Dickinson). After washing with PBS, sections were incubated for 1 hr with secondary antibody (1:200 biotinylated goat anti-mouse; Sigma-Aldrich, St. Louis, Mo.) followed by amplification with an avidin-biotin complex (Vector Laboratories). The staining was visualized with DAB (Sigma-Aldrich, St. Louis, Mo.). For fluorescent double-labeling, the DNA-denaturation procedure consisted of the following steps: 2 hr incubation in 50% formamide-2×SSC at 65° C., 5 min rinse in 2×SSC, 30 min incubation in 2N HCl at 37° C., and 10 min rinse in 0.1 M boric acid, pH 8.5. Sections were then incubated in TBS-0.1% Triton X-100 (Tx)-5% normal donkey serum (NDS) for 30 min, followed by anti-rat BrdU primary antibody (1:100; Accurate Westbury, N.Y. or Serotec, Oxford, UK) in TBS/NDS/Tx for 24 hrs at 4° C. in combination with either a mouse monoclonal antibody to NeuN (1:500; Chemicon, Temecula, Calif.) or a rabbit polyclonal antibody to GFAP (1:800; DAKO, Carpinteria, Calif.). The fluorescent secondary antibodies used were biotin-conjugated donkey anti-rat (1:200) plus streptavidin Cy2 (1:200), donkey anti-mouse. Cy3 (1:500), or donkey anti-rabbit Cy3 (1:500) (Jackson ImmunoResearch, West Grove, Pa.). Fluorescent images were taken with a Bio-Rad MRC 1000 confocal laser scanning system coupled to a Zeiss Axiovert 100 inverted microscope. For each image acquisition, a Kalman average of five frames was used. For quantification of BrdU/NeuN or BrdU/GFAP double-labeled cells, at least 50 BrdU-positive cells per animal were analyzed using Z-plane sectioning (1 μm steps).
In this set of experiments, wild type and 5-HT1A receptor KO mice were injected with BrdU following 27 days of treatment with fluoxetine, imipramine, or vehicle. To assess the effect of AD treatment on cell proliferation, one group of mice was sacrificed 24 hours after BrdU injection and sections containing the dentate gyrus were analyzed by immunohistochemistry.

[4] = mouse, in vivo, po
Method: Fluoxetine (Eli Lilly, Indianapolis, Ind.), Imipramine (Sigma-Aldrich, St. Louis, Mo.), Desipramine (Sigma-Aldrich, St. Louis, Mo.) and Haloperidol (Sigma-Aldrich, St. Louis, Mo.) were dissolved in tap water at a concentration of 80, 160, 160, and 8 mg/L, respectively. These concentration were established based on the average drinking amount and average weight of the mice used in the study to achieve a final dose of 10 (fluoxetine), 20 (imipramine and desipramine) and 1 (haloperidol) mg/kg/day. […] Vehicle animals received tap water. 8-hydroxy-2-(di-n-propylamino) tetralin (8-OH-DPAT, Sigma-Aldrich, St. Louis, Mo.) was dissolved in sterile saline (0.9% NaCl) at a concentration of 4.5 mg/ml, and delivered through Alzet osmotic mini-pumps (model 2004, Alzet, Cupertino, Calif.) implanted subcutaneously 28 days prior to behavioral testing. The final average dose delivered was 1 mg/kg/day. Sham mice were implanted with mini-pumps containing sterile saline.

BALB/c mice = experiment: Chronic unpredictable stress paradigm (CUS); format: in vivo, mouse; settings: for state of the coat (fur) in CUS: fluoxetine 10 mg/kg/day i.p. from week 3, end of fifth week; for weight loss induced by stress in CUS / grooming latency in CUS: fluoxetine 10 mg/kg/day i.p.; for weight loss induced by stress in CUS: data not shown; for grooming latency in CUS: sixth week, after sucrose solution
Method: The stress regimen used is a variant of the chronic mild stress procedures described by Willner et al. (Willner et al., 1992). Mice were subjected to various and repeated unpredictable stressors for a period of five weeks (Griebel et al., 2002). The different stressors used were: alterations of the bedding (repeated sawdust changing, removal of sawdust, damp sawdust, substitution of sawdust with 37° C. water); cage tilting (45°); predator sounds (15 min.); cage shift (mice were positioned in the empty cage of another male); light to dark or dark to light shifts (four light/dark successions of 30 min every 24 hours); reversal of the light/dark cycle. The fluoxetine treatment (10 mg/kg/day, i.p.) started at the beginning of the third week. The state of the coat was assessed at the end of the stress regimen (end of fifth week). The total score resulted from the sum of the score of seven different body parts: head, neck, dorsal coat, ventral coat, tail, forepaws and the hindpaws. A score of 0 was given for a well-groomed coat and 1 for a spoiled coat (see Griebel, 2002). The grooming latency was assessed at the end of the sixth week. This test consisted in squirting 200 μl of a 10% sucrose solution on the mouse's snout. The latency to start grooming was then recorded.
The CUS protocol consists of the sequential application of a number of stressors, presented in a varied and unpredictable manner during 5 weeks. The continued application of these stressors produces a deterioration in the state of the coat, an impaired grooming response, and weight loss (Griebel et al., 2002; Willner et al., 1992). ADs such as fluoxetine can reverse these stress-induced effects after chronic, but not acute, administration (Griebel et al., 2002; Willner et al., 1992).
Sham and irradiated mice were subjected to five weeks of CUS, beginning two weeks after the final X-ray dose, and half of the animals in each group were administered fluoxetine (10 mg/kg/day, i.p.) from weeks 3-6. The state of each animal's fur was assessed at the end of the stress period, and assigned a score based on observations from several body regions (see methods). Fluoxetine treatment was continued for one more week, after which we measured the latency to begin grooming following application of a sucrose solution to the head of each animal.

[5] = tested on: dentate gyrus (DG) of the rat hippocampus; settings: Malberg et al., 2000; cited from earlier work
[6] = 28 days via drinking water, fluoxetine 10, imipramine 20, desipramine 20, haloperidol 1 mg/kg/day, wild-type mice, vs vehicle
[7] = 28 days via drinking water, 5-HT1A knockout (−/−) mice, vs vehicle
[8] = 5-day treatment via drinking water, vs vehicle
[9] = 28 days, X-irradiated mice (3 x 5 Gy to hippocampus), vs vehicle
[10] = 28 days, sham (non-irradiated) mice, vs vehicle

Structure (SMILES): CCCN(CCC)C1CCc2cccc(O)c2C1 (stereo not drawn) [8-OH-DPAT]
latency to feed in NSF (129/SvEv mice; 28 days, subcutaneous osmotic mini pumps, 1 mg/kg/day, wild type (+/+), vs sham, 1 mg/kg/day): significantly decreased the latency to feed; also recorded: significant decrease in the latency to feed
latency to feed in NSF ([1]; 28 days, subcutaneous osmotic mini pumps, 1 mg/kg/day, 5-HT1A knockout (−/−), vs sham, 1 mg/kg/day): ineffective
BrdU-labeled cells in the SGZ (cell proliferation) [2]: caused an increase in cell proliferation
BrdU-labeled cells in the SGZ (cell proliferation) ([2]; listed as DPAT): DPAT-induced increases in BrdU-labeled cells
BrdU-labeled cells in the SGZ (cell proliferation) ([3]; 5-HT1A KO (−/−) mice): not observed
BrdU-labeled cells in the SGZ (cell proliferation) ([3]; 5-HT1A KO (−/−) mice, listed as DPAT): not −/− mice

Structure (SMILES): CNCCCN1c2ccccc2CCc2ccccc21 [desipramine, Desipramine]
latency to feed in NSF (129/SvEv mice; [6]): significant decreases in the latency to feed; also recorded: significantly decreased the latency to feed
latency to feed in NSF [1, 7]: still responsive; also recorded: effective
time by which steady serum levels had been achieved ([4]; 129/SvEv): ≤ 5 days

Structure (SMILES): CNCCC(Oc1ccc(C(F)(F)F)cc1)c1ccccc1 (stereo not drawn) [fluoxetine, Fluoxetine]
latency to feed in NSF (129/SvEv mice; [8]): no effect
latency to feed in NSF (129/SvEv mice; [6]): significant decreases in the latency to feed
latency to feed in NSF (129/SvEv mice; 28 days via drinking water, fluoxetine 10, imipramine 20, desipramine 20, haloperidol 1 mg/kg/day, wild-type mice, vs vehicle, listed as Fluoxetine): significantly decreased the latency to feed
latency to feed in NSF (129/SvEv mice; [9]): no such anxiolytic-like effect
latency to feed in NSF (129/SvEv mice; [10]): significant reduction in the latency to feed
latency to feed in NSF [1, 7]: insensitive
latency to feed in NSF ([1]; 28 days via drinking water, 5-HT1A knockout (−/−) mice, vs vehicle, listed as Fluoxetine): only imipramine and desipramine were effective
cell proliferation (BrdU) ([2]; chronic fluoxetine, X-irradiated animals): no effect
cell proliferation (BrdU) in the SGZ ([2]; chronic fluoxetine, non-irradiated mice): increased cell proliferation
cell proliferation (BrdU) in the SVZ ([2]; chronic fluoxetine, subventricular zone): no effect
number of BrdU-positive cells in the DG ([2]; fluoxetine 5 days, sacrificed 24 hours after BrdU, vs vehicle): No significant effect
increase in BrdU-labeled cells in the dentate gyrus ([2]; wild type (+/+) mice, 27 days (4 weeks) treatment, sacrificed 24 hours after BrdU, vs vehicle): two-fold increase; also recorded: effective only in +/+ mice
BrdU-positive cells surviving 28 days after BrdU injection ([2]; vs vehicle): had an effect in WT
state of the coat (fur) in CUS (BALB/c mice; X-irradiated mice): absent; also recorded: Irradiation prevented the improvement of the state of the coat
state of the coat (fur) in CUS (BALB/c mice; sham mice): significantly improved the state of the fur; also recorded: significant differences between the fluoxetine-treated sham group and all the others
weight loss induced by stress in CUS (BALB/c mice; X-irradiated mice): irradiation blocked this effect
grooming latency in CUS (BALB/c mice; X-irradiated mice): X-irradiation blocked this effect
weight loss induced by stress in CUS (BALB/c mice; sham mice): trend to reverse the weight loss
grooming latency in CUS (BALB/c mice; sham mice): decreased; also recorded: decrease in the latency to groom
time by which steady serum levels had been achieved ([4]; 129/SvEv): ≤ 5 days
neurogenesis in the dentate gyrus [5]: increase neurogenesis
increase in BrdU-labeled cells in the dentate gyrus ([3]; 5-HT1A KO (−/−) mice, 27 days (4 weeks) treatment, sacrificed 24 hours after BrdU, vs vehicle): no effect; also recorded: effective only in +/+ mice
BrdU-positive cells surviving 28 days after BrdU injection ([3]; vs vehicle): not in KO

Structure (SMILES): O=C(CCCN1CCC(O)(c2ccc(Cl)cc2)CC1)c1ccc(F)cc1 [haloperidol, Haloperidol]
latency to feed in NSF (129/SvEv mice; 28 days via drinking water, fluoxetine 10, imipramine 20, desipramine 20, haloperidol 1 mg/kg/day, wild-type mice, vs vehicle, listed as Haloperidol): ineffective

Structure (SMILES): CN(C)CCCN1c2ccccc2CCc2ccccc21 [imipramine, Imipramine]
latency to feed in NSF (129/SvEv mice; [8]): no effect
latency to feed in NSF (129/SvEv mice; [6]): significant decreases in the latency to feed; also recorded: significantly decreased the latency to feed
latency to feed in NSF (129/SvEv mice; [9]): no such anxiolytic-like effect
latency to feed in NSF (129/SvEv mice; [10]): significant reduction in the latency to feed
latency to feed in NSF [1, 7]: still responsive; also recorded: effective
BrdU-positive cells surviving 28 days after BrdU injection ([2]; vs vehicle): effective in both genotypes
time by which steady serum levels had been achieved ([4]; 129/SvEv): ≤ 5 days
BrdU-positive cells surviving 28 days after BrdU injection ([3]; vs vehicle): effective in both genotypes

time by which steady serum levels had been achieved [4]: ≤ 5 days
Structure (SMILES): NCCC(Oc1ccc(C(F)(F)F)cc1)c1ccccc1 (stereo not drawn) [nor- fluoxetine]
